Some results are limits rather than exact numbers.

Factor D, sequence (P00746 26-253): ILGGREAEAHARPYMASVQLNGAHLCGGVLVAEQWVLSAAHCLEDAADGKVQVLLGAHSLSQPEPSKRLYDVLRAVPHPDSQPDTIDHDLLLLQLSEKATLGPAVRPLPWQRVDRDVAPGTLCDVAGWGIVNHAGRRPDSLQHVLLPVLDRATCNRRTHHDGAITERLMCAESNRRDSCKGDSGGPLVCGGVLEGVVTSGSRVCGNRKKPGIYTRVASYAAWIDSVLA

The assay deals with Factor D (Homo sapiens (Human), UniProt P00746). As to the kind of experiment: Factor D esterolytic assay (Z-Lys-SBzl substrate, DTNB, 405 nm). To be noted: Z-Lys-SBzl 1.29 mM, pH 7.5, 10% DMSO, tested a minimum of three times, read-out: Measured Ki (IC50) Value for Compounds: IC50. In kind it is biochemical. The method, boiled down:
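Thioester hydrolysis (Z-Lys-SBzl, 1.29 mM) by human Factor D ([…]) detected through DTNB color at 405 nm over 600 sec, minus 690 nm background. Buffer: 100 mM HEPES pH 7.5, 500 mM NaCl, 10% DMSO; optional room-temperature preincubation before substrate. IC50 derived from percent rate inhibition; at least three runs.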
For orientation: IC50 means the concentration that gives 50% inhibition. On to `C[C@@H](N)c1cccc(-c2cc(COc3ccccc3CC(=O)O)cc3ccoc23)c1F` [Compound 65c, (R)-2-(2-((7-(3-(1-aminoethyl)-2-fluorophenyl)benzofuran-5-yl)methoxy)phenyl)acetic acid], for which the IC50 is less than 1 µM.
The figure for `C[C@H](N)c1cccc(-c2cc(COc3ccccc3CC(=O)O)cc3ccoc23)c1F` [Compound 66c, (S)-2-(2-((7-(3-(1-aminoethyl)-2-fluorophenyl)benzofuran-5-yl)methoxy)phenyl)acetic acid] is less than 1 µM.
Then `N[C@H](CO)c1cccc(-c2cc(COc3ccccc3CC(=O)O)cc3ccoc23)c1F` [Compound 67c, (S)-2-(2-((7-(3-(1-amino-2-hydroxyethyl)-2-fluorophenyl)benzofuran-5-yl)methoxy)phenyl)acetic acid], with less than 1 µM; and `Cc1c(CN)cccc1-c1cc(COc2ccccc2CC(=O)O)cc2ccoc12` [Compound 68c, 2-(2-((7-(3-(aminomethyl)-2-methylphenyl)benzofuran-5-yl)methoxy)phenyl)acetic acid], with less than 1 µM.
Take `NCc1cc(F)cc(-c2cc(COc3ccccc3CC(=O)O)cc3[nH]ccc23)c1` [Compound 69e, 2-(2-((4-(3-(aminomethyl)-5-fluorophenyl)-1H-indol-6-yl)methoxy)phenyl)acetic acid]: the IC50 is less than 1 µM.
Then `NCc1cccc(-c2cc(COc3ccccc3CC(=O)O)cc3[nH]ccc23)c1` [Compound 70a, 2-(2-((4-(3-(aminomethyl)phenyl)-1H-indol-6-yl)methoxy)phenyl)acetic acid], with less than 1 µM; and `NCc1cccc(-c2cc(COc3ccccc3CC(=O)O)c3nccn3c2)c1` [Compound 71e, 2-(2-((6-(3-(aminomethyl)phenyl)imidazo[1,2-a]pyridin-8-yl)methoxy)phenyl)acetic acid], with less than 1 µM.
The figure for `C[C@H](N)c1cccc(-c2cc(COc3ccccc3CC(=O)O)cc3ccoc23)c1` [Compound 72c, (S)-2-(2-((7-(3-(1-aminoethyl)phenyl)benzofuran-5-yl)methoxy)phenyl)acetic acid] is less than 1 µM; for `NCc1cc(F)cc(-c2cc(COc3ccccc3CC(=O)O)cc3ccoc23)c1` [Compound 73c, 2-(2-((7-(3-(aminomethyl)-5-fluorophenyl)benzofuran-5-yl)methoxy)phenyl)acetic acid] it is less than 1 µM.
`NCc1cc(-c2cc(COc3ccccc3CC(=O)O)cc3ccoc23)ccn1` [Compound 74c, 2-(2-((7-(2-(aminomethyl)pyridin-4-yl)benzofuran-5-yl)methoxy)phenyl)acetic acid]: the IC50 is less than 1 µM.
`NCc1c(F)ccc(-c2cc(COc3ccccc3CC(=O)O)cc3ccoc23)c1F` [Compound 75c, 2-(2-((7-(3-(aminomethyl)-2,4-difluorophenyl)benzofuran-5-yl)methoxy)phenyl)acetic acid]: the IC50 was less than 1 µM.
Then `NCc1cccc(-c2cc(COc3ccccc3CC(=O)O)cc3cc(CO)oc23)c1` [Compound 76f, 2-(2-((7-(3-(aminomethyl)phenyl)-2-(hydroxymethyl)benzofuran-5-yl)methoxy)phenyl)acetic acid], with less than 1 µM; and `N[C@H](CO)c1cc(-c2cc(COc3ccccc3CC(=O)O)cc3ccoc23)ccn1` [Compound 77c, (S)-2-(2-((7-(2-(1-amino-2-hydroxyethyl)pyridin-4-yl)benzofuran-5-yl)methoxy)phenyl)acetic acid], with less than 1 µM.
The figure for `C[C@@H](N)c1cccc(-c2cc(COc3ccccc3CC(=O)O)cc3ccoc23)c1` [Compound 78c, (R)-2-(2-((7-(3-(1-aminoethyl)phenyl)benzofuran-5-yl)methoxy)phenyl)acetic acid] is less than 1 µM; for `NCc1cccc(-c2cc(COc3ccccc3CC(=O)O)cc3ccoc23)n1` [Compound 79c, 2-(2-((7-(6-(aminomethyl)pyridin-2-yl)benzofuran-5-yl)methoxy)phenyl)acetic acid] it is less than 1 µM; for `NCc1nccc(-c2cc(COc3ccccc3CC(=O)O)cc3ccoc23)c1F` [Compound 80e, 2-(2-((7-(2-(aminomethyl)-3-fluoropyridin-4-yl)benzofuran-5-yl)methoxy)phenyl)acetic acid] it is less than 1 µM.
The figure for `Cc1c[nH]c2cc(C(=O)Nc3ccccc3CC(=O)O)cc(-c3cccc(CN)c3)c12` [Compound 81d, 2-(2-(4-(3-(aminomethyl)phenyl)-3-methyl-1H-indole-6-carboxamido)phenyl)acetic acid] is greater than 10 µM; for `NCc1cccc(-c2cc(COc3ccccc3CC(=O)O)cc3cc(C4CCCC4)oc23)c1` [Compound 82f, 2-(2-((7-(3-(aminomethyl)phenyl)-2-cyclopentylbenzofuran-5-yl)methoxy)phenyl)acetic acid] it is less than 1 µM.
As to `NCc1cccc(-c2nc(C(=O)Nc3ccccc3CC(=O)O)cc3[nH]ccc23)c1` [Compound 83h, 2-(2-(4-(3-(aminomethyl)phenyl)-1H-pyrrolo[3,2-c]pyridine-6-carboxamido)phenyl)acetic acid], the IC50 was less than 1 µM.
The figure for `Cc1cc2cc(COc3ccccc3CC(=O)O)cc(-c3cccc(CN)c3)c2o1` [Compound 84f, 2-(2-((7-(3-(aminomethyl)phenyl)-2-methylbenzofuran-5-yl)methoxy)phenyl)acetic acid] is less than 1 µM; for `N=C(N)c1cccc(-c2cc(COc3ccccc3CC(=O)O)cc3ccoc23)c1` [Compound 85c, 2-(2-((7-(3-carbamimidoylphenyl)benzofuran-5-yl)methoxy)phenyl)acetic acid] it is less than 1 µM.
Then `NC(=O)c1cccc(-c2cc(COc3ccccc3CC(=O)O)cc3ccoc23)c1` [Compound 85d, 2-(2-((7-(3-carbamoylphenyl)benzofuran-5-yl)methoxy)phenyl)acetic acid], with 1 to 10 µM; and `NCc1cccc(-c2cc(COc3ccccc3CC(=O)O)nc3[nH]ccc23)c1F` [Compound 86b, 2-(2-((4-(3-(aminomethyl)-2-fluorophenyl)-1H-pyrrolo[2,3-b]pyridin-6-yl)methoxy)phenyl)acetic acid], with less than 1 µM; and `Nc1nccc2ccc(-c3cc(COc4ccccc4CC(=O)O)cc4ccoc34)cc12` [Compound 87c, 2-(2-((7-(1-aminoisoquinolin-7-yl)benzofuran-5-yl)methoxy)phenyl)acetic acid], with greater than 10 µM.
Then `NCc1cccc(-c2cc(COc3ccccc3CC(=O)O)cc3cc(C4CC4)oc23)c1F` [Compound 88b, 2-(2-((7-(3-(aminomethyl)-2-fluorophenyl)-2-cyclopropylbenzofuran-5-yl)methoxy)phenyl)acetic acid], with less than 1 µM; and `Cc1cc(CN)cc(-c2cc(COc3ccccc3CC(=O)O)cc3ccoc23)c1` [Compound 89c, 2-(2-((7-(3-(aminomethyl)-5-methylphenyl)benzofuran-5-yl)methoxy)phenyl)acetic acid], with less than 1 µM.
For `NCc1nccc(-c2cc(COc3ccc(F)cc3CC(=O)O)cc3ccoc23)c1F` [Compound 90d, 2-(2-((7-(2-(aminomethyl)-3-fluoropyridin-4-yl)benzofuran-5-yl)methoxy)-5-fluorophenyl)acetic acid], the IC50 is less than 1 µM.
The figure for `Cc1nc2cc(COc3ccccc3CC(=O)O)cc(-c3cccc(CN)c3)c2o1` [Compound 91h, 2-(2-((7-(3-(aminomethyl)phenyl)-2-methylbenzo[d]oxazol-5-yl)methoxy)phenyl)acetic acid] is less than 1 µM; for `Cc1cc2cc(COc3ccccc3CC(=O)O)cc(-c3cccc(CN)c3F)c2o1` [Compound 92b, 2-(2-((7-(3-(aminomethyl)-2-fluorophenyl)-2-methylbenzofuran-5-yl)methoxy)phenyl)acetic acid] it is less than 1 µM; for `NCc1cccc(-c2cn3cccc3c(C(=O)Nc3ccccc3CC(=O)O)n2)c1` [Compound 93h, 2-(2-(3-(3-(aminomethyl)phenyl)pyrrolo[1,2-a]pyrazine-1-carboxamido)phenyl)acetic acid] it is less than 1 µM.
For `NCc1cccc(-c2cc(COc3ccccc3CC(=O)O)cc3cc(CO)oc23)c1F` [Compound 94c, 2-(2-((7-(3-(aminomethyl)-2-fluorophenyl)-2-(hydroxymethyl)benzofuran-5-yl)methoxy)phenyl)acetic acid], the IC50 was less than 1 µM.
The figure for `NCCc1cccc(-c2cc(COc3ccccc3CC(=O)O)cc3ccoc23)c1` [Compound 95c, 2-(2-((7-(3-(2-aminoethyl)phenyl)benzofuran-5-yl)methoxy)phenyl)acetic acid] is less than 1 µM; for `COCc1cc2cc(COc3ccccc3CC(=O)O)cc(-c3cccc(CN)c3)c2o1` [Compound 96e, 2-(2-((7-(3-(aminomethyl)phenyl)-2-(methoxymethyl)benzofuran-5-yl)methoxy)phenyl)acetic acid] it is less than 1 µM; for `Cn1ccc2c(-c3cccc(CN)c3F)cc(COc3ccccc3CC(=O)O)cc21` [Compound 97b, 2-(2-((4-(3-(aminomethyl)-2-fluorophenyl)-1-methyl-1H-indol-6-yl)methoxy)phenyl)acetic acid] it is less than 1 µM.
Then `CC(O)c1cc2cc(COc3ccccc3CC(=O)O)cc(-c3cccc(CN)c3)c2o1` (stereo not shown) [Compound 98e, 2-(2-((7-(3-(aminomethyl)phenyl)-2-(1-hydroxyethyl)benzofuran-5-yl)methoxy)phenyl)acetic acid], with less than 1 µM; and `COCc1cc2cc(COc3ccccc3CC(=O)O)cc(-c3cccc(CN)c3F)c2o1` [Compound 99b, 2-(2-((7-(3-(aminomethyl)-2-fluorophenyl)-2-(methoxymethyl)benzofuran-5-yl)methoxy)phenyl)acetic acid], with less than 1 µM; and `CC(N)c1cccc(-c2cc(COc3ccccc3CC(=O)O)cc3ccoc23)n1` (stereo not shown) [Compound 100c, 2-(2-((7-(6-(1-aminoethyl)pyridin-2-yl)benzofuran-5-yl)methoxy)phenyl)acetic acid], with 1 to 10 µM.
